Test results as given in US8541588B2, “Sulfonamide derivatives” (Pfizer Limited, priority 2009, dated 2013).

Biological target: T1, Nav1.7 (or SCN9A) channel; HEK cells stably transfected with hSCN9A (Homo sapiens, UniProt Q15858)
T1 construct: expressed in transfected cells
Experiment: Nav1.7 block, PatchXpress 7000 automated whole-cell voltage clamp, estimated IC50 (EIC50)
Assay type: cell-based
Conditions: PatchXpress platform; hSCN9A HEK cells held at V1/2 of inactivation; estimated IC50

T1 sequence (Q15858 whole entry): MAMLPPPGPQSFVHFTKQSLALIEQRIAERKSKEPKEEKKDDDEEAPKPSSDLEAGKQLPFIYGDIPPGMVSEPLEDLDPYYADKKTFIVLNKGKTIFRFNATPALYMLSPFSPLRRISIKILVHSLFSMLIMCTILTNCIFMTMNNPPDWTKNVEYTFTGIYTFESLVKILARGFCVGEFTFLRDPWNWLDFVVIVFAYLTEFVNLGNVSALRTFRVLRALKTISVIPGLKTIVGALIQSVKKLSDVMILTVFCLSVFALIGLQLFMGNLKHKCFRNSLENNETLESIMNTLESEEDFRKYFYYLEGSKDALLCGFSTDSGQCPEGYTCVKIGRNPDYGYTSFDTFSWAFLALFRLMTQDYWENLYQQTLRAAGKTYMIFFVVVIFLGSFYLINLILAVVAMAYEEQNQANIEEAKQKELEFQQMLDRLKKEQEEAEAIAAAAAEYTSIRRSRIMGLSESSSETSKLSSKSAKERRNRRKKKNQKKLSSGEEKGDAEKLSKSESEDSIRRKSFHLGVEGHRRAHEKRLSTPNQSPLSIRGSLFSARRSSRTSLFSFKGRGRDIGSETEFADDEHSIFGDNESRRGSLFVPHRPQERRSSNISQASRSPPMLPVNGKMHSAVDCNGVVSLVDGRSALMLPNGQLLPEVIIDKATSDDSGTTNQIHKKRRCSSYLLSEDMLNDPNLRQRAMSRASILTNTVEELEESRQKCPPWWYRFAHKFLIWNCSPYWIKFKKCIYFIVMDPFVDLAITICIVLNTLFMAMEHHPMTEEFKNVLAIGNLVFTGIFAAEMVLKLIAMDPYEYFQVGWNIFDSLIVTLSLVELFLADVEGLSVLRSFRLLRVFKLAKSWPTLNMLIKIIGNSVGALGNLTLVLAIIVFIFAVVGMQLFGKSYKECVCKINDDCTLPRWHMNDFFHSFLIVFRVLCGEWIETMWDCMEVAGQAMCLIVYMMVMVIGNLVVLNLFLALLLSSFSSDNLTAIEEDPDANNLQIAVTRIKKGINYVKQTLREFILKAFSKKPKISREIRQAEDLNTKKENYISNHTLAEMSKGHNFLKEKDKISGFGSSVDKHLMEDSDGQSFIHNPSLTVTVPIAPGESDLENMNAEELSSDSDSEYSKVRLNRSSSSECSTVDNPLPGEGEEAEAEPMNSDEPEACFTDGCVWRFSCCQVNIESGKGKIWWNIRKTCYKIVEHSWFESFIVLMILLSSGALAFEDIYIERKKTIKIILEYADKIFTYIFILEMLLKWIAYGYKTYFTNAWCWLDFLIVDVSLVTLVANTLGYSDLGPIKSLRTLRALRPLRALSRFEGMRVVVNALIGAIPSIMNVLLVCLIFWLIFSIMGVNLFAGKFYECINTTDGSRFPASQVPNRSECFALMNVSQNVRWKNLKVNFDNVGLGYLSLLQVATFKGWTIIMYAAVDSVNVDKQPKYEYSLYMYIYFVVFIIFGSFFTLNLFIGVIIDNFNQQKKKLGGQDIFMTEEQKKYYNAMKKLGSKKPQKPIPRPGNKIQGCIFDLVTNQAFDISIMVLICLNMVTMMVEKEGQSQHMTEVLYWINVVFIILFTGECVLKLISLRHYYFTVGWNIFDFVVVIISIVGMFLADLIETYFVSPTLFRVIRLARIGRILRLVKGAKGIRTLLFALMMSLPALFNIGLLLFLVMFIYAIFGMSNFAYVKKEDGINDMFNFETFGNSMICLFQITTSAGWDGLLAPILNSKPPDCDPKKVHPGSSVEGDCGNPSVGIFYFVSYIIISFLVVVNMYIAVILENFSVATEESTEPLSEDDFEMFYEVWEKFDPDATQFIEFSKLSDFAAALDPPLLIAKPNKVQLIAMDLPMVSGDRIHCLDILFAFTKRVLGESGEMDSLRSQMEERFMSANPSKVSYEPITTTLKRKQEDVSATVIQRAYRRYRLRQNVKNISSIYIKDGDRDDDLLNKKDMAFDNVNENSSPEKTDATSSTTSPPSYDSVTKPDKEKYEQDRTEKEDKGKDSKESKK

In order of falling IC50:
1. Cc1ccnn1-c1cc(F)ccc1Oc1ccc(S(=O)(=O)Nc2nccs2)cc1C#N [Example 176, 3-cyano-4-(4-fluoro-2-(5-methyl-1H-pyrazol-1-yl)phenoxy)-N-(thiazol-2-yl)benzenesulfonamide]  8870 nM
2. N#Cc1cc(S(=O)(=O)Nc2ncc(Cl)s2)ccc1Oc1ccccc1Oc1ccccc1 [Example 134, N-(5-chloro-1,3-thiazol-2-yl)-3-cyano-4-(2-phenoxyphenoxy)benzenesulfonamide]  3770 nM
3. Cc1cc(Oc2ccc(S(=O)(=O)Nc3nccs3)cc2)n(-c2ccccc2)n1 [Example 277, 4-(5-methyl-2-phenyl-2H-pyrazol-3-yloxy)-N-thiazol-2-yl-benzenesulfonamide]  1110 nM
4. COC(=O)c1ccc(Oc2ccc(S(=O)(=O)Nc3ncns3)cc2C#N)c(-c2ccnn2C)c1 [Example 30, methyl 4-(4-(N-1,2,4-thiadiazol-5-ylsulfamoyl)-2-cyanophenoxy)-3-(1-methyl-1H-pyrazol-5-yl)benzoate]  300 nM
5. N#Cc1cc(S(=O)(=O)Nc2ncns2)ccc1Oc1cc(C(F)(F)F)nn1-c1ccccc1F [Example 88, 3-cyano-4-{[1-(2-fluorophenyl)-3-(trifluoromethyl)-1H-pyrazol-5-yl]oxy}-N-1,2,4-thiadiazol-5-ylbenzenesulfonamide]  270 nM
6. N#Cc1cc(S(=O)(=O)Nc2ncns2)ccc1Oc1ccc(F)cc1-c1ccc(F)cc1F [Example 46, 3-cyano-N-1,2,4-thiadiazol-5-yl-4-[(2′,4′,5-trifluorobiphenyl-2-yl)oxy]benzenesulfonamide]  210 nM
7. O=S(=O)(Nc1ncns1)c1cc(F)c(Oc2ccccc2-c2ccccc2)cc1F [Example 266, 4-(biphenyl-2-yloxy)-2,5-difluoro-N-1,2,4-thiadiazol-5-ylbenzenesulfonamide]  100 nM
8. Cn1nccc1-c1cc(Br)ccc1Oc1ccc(S(=O)(=O)Nc2nccs2)cc1F [Example 226, 4-(4-bromo-2-(1-methyl-1H-pyrazol-5-yl)phenoxy)-3-fluoro-N-(thiazol-2-yl)benzenesulfonamide]  30 nM

Compound `CCn1nc(C)c(-c2ccccc2Oc2ccc(S(=O)(=O)Nc3ncns3)cc2C#N)c1C` [Example 72, 3-cyano-4-[2-(1-ethyl-3,5-dimethyl-1H-pyrazol-4-yl)phenoxy]-N-1,2,4-thiadiazol-5-ylbenzenesulfonamide] has an IC50 of over 300 nM.

Same assay, conditions: estimated IC50; hSCN9A HEK cells, PatchXpress platform; Examples 283-814

In order of rising IC50:
1. O=S(=O)(Nc1ncns1)c1cc(F)c(Oc2ccc(C(F)(F)F)cc2-c2ccnnc2)cc1F [Example 805, 2,5-difluoro-4-[2-pyridazin-4-yl-4-(trifluoromethyl)phenoxy]-N-1,2,4-thiadiazol-5-ylbenzenesulfonamide]  6.2 nM
2. O=S(=O)(Nc1ncns1)c1cc(Cl)c(Oc2cc(F)ccc2-c2ccn[nH]2)cc1F [Example 773, 5-chloro-2-fluoro-4-[5-fluoro-2-(1H-pyrazol-5-yl)phenoxy]-N-1,2,4-thiadiazol-5-ylbenzenesulfonamide]  6.9 nM
3. O=S(=O)(Nc1ncns1)c1ccc(Oc2ccc(Cl)cc2C2CCNCC2)c(Cl)c1 [Example 477, 3-chloro-4-(4-chloro-2-piperidin-4-ylphenoxy)-N-1,2,4-thiadiazol-5-ylbenzenesulfonamide]  16 nM
4. O=S(=O)(Nc1ncns1)c1cc(F)c(Oc2ccc(F)cc2-c2ccn[nH]2)cc1F [Example 781, 2,5-difluoro-4-[4-fluoro-2-(1H-pyrazol-5-yl)phenoxy]-N-1,2,4-thiadiazol-5-ylbenzenesulfonamide]  22 nM
5. N#Cc1cc(S(=O)(=O)Nc2ncns2)ccc1Oc1ccc(OC(F)(F)F)cc1-c1cn[nH]c1 [Example 502, 3-cyano-4-[2-(1H-pyrazol-4-yl)-4-(trifluoromethoxy)phenoxy]-N-1,2,4-thiadiazol-5-ylbenzenesulfonamide]  22 nM
6. N#Cc1cc(S(=O)(=O)Nc2ncc(I)s2)ccc1Oc1ccc(Cl)cc1-c1cn[nH]c1 [Example 582, 4-[4-Chloro-2-(1H-pyrazol-4-yl)phenoxy]-3-cyano-N-(5-iodo-1,3-thiazol-2-yl)benzenesulfonamide]  34 nM
7. N#Cc1cc(S(=O)(=O)Nc2nccs2)ccc1Oc1ccc(-c2cc(C(F)(F)F)nn2C2CNC2)cc1 [Example 558, 4-{4-[1-azetidin-3-yl-3-(trifluoromethyl)-1H-pyrazol-5-yl]phenoxy}-3-cyano-N-1,3-thiazol-2-ylbenzenesulfonamide]  39 nM
8. Cn1nccc1-c1ccc(F)cc1Oc1ccc(S(=O)(=O)Nc2nccs2)cc1C#N [Example 542, 3-cyano-4-[5-fluoro-2-(1-methyl-1H-pyrazol-5-yl)phenoxy]-N-1,3-thiazol-2-ylbenzenesulfonamide]  66 nM
9. Cn1cc(-c2cc(Cl)ccc2Oc2ccc(S(=O)(=O)Nc3nccs3)cc2C#N)cn1 [Example 693, 4-[4-chloro-2-(1-methyl-1H-pyrazol-4-yl)phenoxy]-3-cyano-N-1,3-thiazol-2-ylbenzenesulfonamide]  81 nM
10. N#Cc1cc(S(=O)(=O)Nc2ncc(Cl)s2)ccc1Oc1ccc(Cl)cc1C1COC1 [Example 588, 4-(4-Chloro-2-oxetan-3-ylphenoxy)-N-(5-chloro-1,3-thiazol-2-yl)-3-cyanobenzenesulfonamide]  120 nM
11. CCn1nc(C(F)(F)F)cc1-c1ccc(Oc2ccc(S(=O)(=O)Nc3ncc(F)s3)cc2C#N)cc1F [Example 536, 3-cyano-4-{4-[1-ethyl-3-(trifluoromethyl)-1H-pyrazol-5-yl]-3-fluorophenoxy}-N-(5-fluoro-1,3-thiazol-2-yl)benzenesulfonamide]  220 nM
12. Cn1nc(C(F)(F)F)cc1-c1ccc(Oc2cc(F)c(S(=O)(=O)Nc3ncc(F)s3)cc2F)cc1 [Example 682, 2,5-difluoro-N-(5-fluoro-1,3-thiazol-2-yl)-4-{4-[1-methyl-3-(trifluoromethyl)-1H-pyrazol-5-yl]phenoxy}benzenesulfonamide]  710 nM
13. CC(C)(C)n1nccc1-c1cc(F)ccc1Oc1cc(F)c(S(=O)(=O)Nc2cscn2)cc1Cl [Example 519, 4-[2-(1-tert-butyl-1H-pyrazol-5-yl)-4-fluorophenoxy]-5-chloro-2-fluoro-N-1,3-thiazol-4-ylbenzenesulfonamide]  1200 nM
14. N#Cc1cc(S(=O)(=O)Nc2nccs2)ccc1Oc1ccc(-c2ncccc2C(F)(F)F)cc1 [Example 457, 3-cyano-N-1,3-thiazol-2-yl-4-{4-[3-(trifluoromethyl)pyridin-2-yl]phenoxy}benzenesulfonamide]  2000 nM
15. tert-Butyl [(5-chloro-2,4-difluorophenyl)sulfonyl](5-cyano-1,3-thiazol-4-yl)carbamate [Example 516]  10000 nM

`N#Cc1cc(S(=O)(=O)Nc2nccs2)ccc1Oc1ccc(N2CCCC2=O)cc1` [Example 488, 3-cyano-4-[4-(2-oxopyrrolidin-1-yl)phenoxy]-N-1,3-thiazol-2-ylbenzenesulfonamide] gave an IC50 of over 1000 nM.
Compound `CCn1nc(C(F)(F)F)cc1-c1ccc(Oc2ccc(S(=O)(=O)Nc3ccc(C#N)cn3)cc2C#N)cc1` [Example 343, 3-cyano-N-(5-cyanopyridin-2-yl)-4-{4-[1-ethyl-3-(trifluoromethyl)-1H-pyrazol-5-yl]phenoxy}benzenesulfonamide] has an IC50 of over 10000 nM.

Same assay, conditions: estimated IC50; hSCN9A HEK cells, PatchXpress platform; Examples 815-1040

In order of rising IC50:
1. N#Cc1cc(S(=O)(=O)Nc2ncns2)ccc1Oc1ccc(Cl)cc1-c1ccnc(N2CCNCC2)n1 [Example 1030, 4-[4-Chloro-2-(2-piperazin-1-ylpyrimidin-4-yl)phenoxy]-3-cyano-N-1,2,4-thiadiazol-5-ylbenzenesulfonamide]  0.7 nM
2. Cc1[nH]ncc1-c1cc(Cl)ccc1Oc1cc(F)c(S(=O)(=O)Nc2nncs2)cc1Cl [Example 816, 5-chloro-4-[4-chloro-2-(5-methyl-1H-pyrazol-4-yl)phenoxy]-2-fluoro-N-1,3,4-thiadiazol-2-ylbenzenesulfonamide]  11 nM
3. N#Cc1cc(S(=O)(=O)Nc2ncns2)ccc1Oc1cc(OC(F)(F)F)c(F)cc1-c1ccnnc1 [Example 964, 3-cyano-4-[4-fluoro-2-pyridazin-4-yl-5-(trifluoromethoxy)phenoxy]-N-1,2,4-thiadiazol-5-ylbenzenesulfonamide]  21 nM
4. O=S(=O)(Nc1nncs1)c1cc(Cl)c(Oc2cc(C(F)(F)F)c(F)cc2-c2ccnnc2)cc1F [Example 947, 5-chloro-2-fluoro-4-[4-fluoro-2-pyridazin-4-yl-5-(trifluoromethyl)phenoxy]-N-1,3,4-thiadiazol-2-ylbenzenesulfonamide]  23 nM
5. O=S(=O)(Nc1nncs1)c1cc(Cl)c(Oc2ccc(Cl)cc2-c2ccnnc2)cc1F [Example 843, 5-chloro-4-(4-chloro-2-pyridazin-4-ylphenoxy)-2-fluoro-N-1,3,4-thiadiazol-2-ylbenzenesulfonamide]  34 nM
6. O=S(=O)(Nc1ncccn1)c1cc(Cl)c(Oc2ccc(Cl)cc2-c2ccnnc2)cc1F [Example 941, 5-chloro-4-(4-chloro-2-pyridazin-4-ylphenoxy)-2-fluoro-N-pyrimidin-2-ylbenzenesulfonamide]  72 nM
7. O=S(=O)(Nc1cscn1)c1ccc(Oc2ccc(Cl)cc2-c2ccn[nH]2)c(Cl)c1 [Example 911, 3-chloro-4-[4-chloro-2-(1H-pyrazol-5-yl)phenoxy]-N-1,3-thiazol-4-ylbenzenesulfonamide]  170 nM
8. O=S(=O)(Nc1ncns1)c1ccc(Oc2ccc(Cl)cc2C2CCOCC2)c(F)c1 [Example 825, 4-[4-chloro-2-(tetrahydro-2H-pyran-4-yl)phenoxy]-3-fluoro-N-1,2,4-thiadiazol-5-ylbenzenesulfonamide]  190 nM
9. N#Cc1cc(S(=O)(=O)Nc2ncns2)ccc1Oc1ccc(Cl)cc1-c1ccc(CC(=O)O)cc1 [Example 1001, (5′-chloro-2′-{2-cyano-4-[(1,2,4-thiadiazol-5-ylamino)sulfonyl]phenoxy}biphenyl-4-yl)acetic acid]  820 nM

`N#Cc1cc(S(=O)(=O)Nc2nccs2)ccc1Oc1ccc(-c2cnn(CC(F)(F)F)c2N)cc1` [Example 986, 4-{4-[5-amino-1-(2,2,2-trifluoroethyl)-1H-pyrazol-4-yl]phenoxy}-3-cyano-N-1,3-thiazol-2-ylbenzenesulfonamide] was tested, and the IC50 was over 10000 nM.
